Measurements: US8802597B2, “Herbicidal pyrimidines” (E I du Pont de Nemours and Company, priority 2003, dated 2014)

What was measured:
Assay in all cases: Test G pre/postemergence
Type in all cases: in vivo
[1] = test system: southern sandbur (Cenchrus echinatus)
Outline: (§1)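 Test chemicals in non-phytotoxic solvent with surfactant applied preemergence to sown seeds or nutlets and postemergence to plants 2–18 cm tall (1- to 4-leaf stage). Greenhouse-held 12–21 days, then visually rated against untreated controls on a 0 (no effect) to 100 (complete control) scale.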

[2] = test system: johnsongrass (Sorghum halepense)
Outline: as §1

[3] = test system: barnyardgrass (Echinochloa crus-galli)
Outline: as §1

[4] = test system: tropical spiderwort (Commelina benghalensis)
Outline: as §1

[5] = test system: common mallow (Malva sylvestris)
Outline: as §1

[6] = test system: itchgrass (Rottboellia cochinchinensis)
Outline: as §1

[7] = test system: Italian ryegrass (Lolium multiflorum)
Outline: as §1

[8] = test system: green foxtail (Setaria viridis)
Outline: as §1

[9] = test system: broadleaf signalgrass (Brachiaria platyphylla)
Outline: as §1

[10] = test system: annual bluegrass (Poa annua)
Outline: as §1

[11] = test system: large crabgrass (Digitaria sanguinalis)
Outline: as §1

[12] = test system: black mustard (Brassica nigra)
Outline: as §1

[13] = test system: pitted morningglory (Ipomoea lacunosa)
Outline: as §1

[14] = test system: prickly sida (Sida spinosa)
Outline: as §1

[15] = Postemergence, 8 g ai/ha, scale 0 to 100
[16] = Postemergence, 16 g ai/ha, scale 0 to 100
[17] = Postemergence, 31 g ai/ha, scale 0 to 100
[18] = Postemergence, 62 g ai/ha, scale 0 to 100
[19] = Preemergence, 8 g ai/ha, scale 0-100
[20] = Preemergence, 16 g ai/ha, scale 0-100
[21] = Preemergence, 31 g ai/ha, scale 0-100
[22] = Preemergence, 62 g ai/ha, scale 0-100

Question: Which results are given for `CCOC(=O)c1nc(-c2ccc(Cl)cc2)nc(N)c1Cl` [Compound 64, ethyl 6-amino-5-chloro-2-(4-chlorophenyl)-4-pyrimidinecarboxylate]?
Answer: Plant response rating, Sandbur [1, 15]: 0; Plant response rating, Sandbur [1, 16]: 0; Plant response rating, Sandbur [1, 17]: 20; Plant response rating, Sandbur [1, 18]: 20; Plant response rating, Sandbur [1, 19]: 0; Plant response rating, Sandbur [1, 20]: 0; Plant response rating, Sandbur [1, 21]: 0; Plant response rating, Sandbur [1, 22]: 0; Plant response rating, Johnsongrass [2, 15]: 0; Plant response rating, Johnsongrass [2, 16]: 0; Plant response rating, Johnsongrass [2, 17]: 0; Plant response rating, Johnsongrass [2, 18]: 0; Plant response rating, Johnsongrass [2, 19]: 0; Plant response rating, Johnsongrass [2, 20]: 0; Plant response rating, Johnsongrass [2, 21]: 0; Plant response rating, Johnsongrass [2, 22]: 0; Plant response rating, Barnyardgrass [3, 15]: 0; Plant response rating, Barnyardgrass [3, 16]: 20; Plant response rating, Barnyardgrass [3, 17]: 20; Plant response rating, Barnyardgrass [3, 18]: 20; Plant response rating, Barnyardgrass [3, 19]: 0; Plant response rating, Barnyardgrass [3, 20]: 0; Plant response rating, Barnyardgrass [3, 21]: 0; Plant response rating, Barnyardgrass [3, 22]: 10; Plant response rating, Spiderwort [4, 15]: 65; Plant response rating, Spiderwort [4, 16]: 80; Plant response rating, Spiderwort [4, 17]: 80; Plant response rating, Spiderwort [4, 18]: 90; Plant response rating, Spiderwort [4, 19]: 0; Plant response rating, Spiderwort [4, 20]: 50; Plant response rating, Spiderwort [4, 21]: 75; Plant response rating, Spiderwort [4, 22]: 90; Plant response rating, Mallow [5, 15]: 65; Plant response rating, Mallow [5, 16]: 80; Plant response rating, Mallow [5, 17]: 90; Plant response rating, Mallow [5, 18]: 90; Plant response rating, Mallow [5, 19]: 0; Plant response rating, Mallow [5, 21]: 0; Plant response rating, Mallow [5, 22]: 0; Plant response rating, Itchgrass [6, 15]: 0; Plant response rating, Itchgrass [6, 16]: 0; Plant response rating, Itchgrass [6, 17]: 0; Plant response rating, Itchgrass [6, 18]: 60; Plant response rating, Itchgrass [6, 19]: 0; Plant response rating, Itchgrass [6, 20]: 0; Plant response rating, Itchgrass [6, 21]: 0; Plant response rating, Itchgrass [6, 22]: 20; Plant response rating, Ryegrass, Italian [7, 15]: 0; Plant response rating, Ryegrass, Italian [7, 16]: 10; Plant response rating, Ryegrass, Italian [7, 17]: 20; Plant response rating, Ryegrass, Italian [7, 18]: 35; Plant response rating, Ryegrass, Italian [7, 19]: 0; Plant response rating, Ryegrass, Italian [7, 20]: 0; Plant response rating, Ryegrass, Italian [7, 21]: 0; Plant response rating, Ryegrass, Italian [7, 22]: 0; Plant response rating, Foxtail, Green [8, 15]: 0; Plant response rating, Foxtail, Green [8, 16]: 0; Plant response rating, Foxtail, Green [8, 17]: 0; Plant response rating, Foxtail, Green [8, 18]: 0; Plant response rating, Foxtail, Green [8, 19]: 0; Plant response rating, Foxtail, Green [8, 20]: 0; Plant response rating, Foxtail, Green [8, 21]: 0; Plant response rating, Foxtail, Green [8, 22]: 0; Plant response rating, Signalgrass [9, 15]: 0; Plant response rating, Signalgrass [9, 16]: 0; Plant response rating, Signalgrass [9, 17]: 0; Plant response rating, Signalgrass [9, 18]: 30; Plant response rating, Signalgrass [9, 19]: 0; Plant response rating, Signalgrass [9, 20]: 0; Plant response rating, Signalgrass [9, 21]: 0; Plant response rating, Signalgrass [9, 22]: 0; Plant response rating, Bluegrass [10, 15]: 0; Plant response rating, Bluegrass [10, 16]: 0; Plant response rating, Bluegrass [10, 17]: 0; Plant response rating, Bluegrass [10, 18]: 0; Plant response rating, Bluegrass [10, 19]: 0; Plant response rating, Bluegrass [10, 20]: 0; Plant response rating, Bluegrass [10, 21]: 0; Plant response rating, Bluegrass [10, 22]: 0; Plant response rating, Crabgrass, Large [11, 15]: 30; Plant response rating, Crabgrass, Large [11, 16]: 50; Plant response rating, Crabgrass, Large [11, 17]: 70; Plant response rating, Crabgrass, Large [11, 18]: 80; Plant response rating, Crabgrass, Large [11, 19]: 0; Plant response rating, Crabgrass, Large [11, 20]: 0; Plant response rating, Crabgrass, Large [11, 21]: 0; Plant response rating, Crabgrass, Large [11, 22]: 35; Plant response rating, Black Mustard [12, 15]: 0; Plant response rating, Black Mustard [12, 16]: 0; Plant response rating, Black Mustard [12, 17]: 0; Plant response rating, Black Mustard [12, 18]: 10; Plant response rating, Black Mustard [12, 19]: 0; Plant response rating, Black Mustard [12, 20]: 0; Plant response rating, Black Mustard [12, 21]: 20; Plant response rating, Black Mustard [12, 22]: 35; Plant response rating, Morningglory [13, 15]: 0; Plant response rating, Morningglory [13, 16]: 0; Plant response rating, Morningglory [13, 17]: 20; Plant response rating, Morningglory [13, 18]: 65; Plant response rating, Morningglory [13, 19]: 0; Plant response rating, Morningglory [13, 20]: 0; Plant response rating, Morningglory [13, 21]: 0; Plant response rating, Morningglory [13, 22]: 0; Plant response rating, Prickly Sida [14, 15]: 40; Plant response rating, Prickly Sida [14, 16]: 65; Plant response rating, Prickly Sida [14, 17]: 75; Plant response rating, Prickly Sida [14, 18]: 75; Plant response rating, Prickly Sida [14, 19]: 0; Plant response rating, Prickly Sida [14, 20]: 0; Plant response rating, Prickly Sida [14, 21]: 30; Plant response rating, Prickly Sida [14, 22]: 50
